Experimental data from PubChem BioAssay (NCI).
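How tested: cells in 96-well plates exposed to compound for 48 hours at five concentrations. TGI marks complete inhibition of growth.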

Assays:
Assay in all cases: growth of human tumour cells (NCI), 48 h
786-0 renal = test system: 786-0 renal
A498 renal = test system: A498 renal
A549 NSCLC = test system: A549 NSCLC
BT-549 breast = test system: BT-549 breast
CAKI-1 renal = test system: CAKI-1 renal
CCRF-CEM leukemia = test system: CCRF-CEM leukemia
COLO 205 colon = test system: COLO 205 colon
DU-145 prostate = test system: DU-145 prostate
EKVX NSCLC = test system: EKVX NSCLC
HCT-116 colon = test system: HCT-116 colon
HCT-15 colon = test system: HCT-15 colon
HL-60(TB) leukemia = test system: HL-60(TB) leukemia
HOP-62 NSCLC = test system: HOP-62 NSCLC
HOP-92 NSCLC = test system: HOP-92 NSCLC
HS 578T breast = test system: HS 578T breast
HT29 colon = test system: HT29 colon
IGROV1 ovarian = test system: IGROV1 ovarian
K-562 leukemia = test system: K-562 leukemia
KM12 colon = test system: KM12 colon
LOX IMVI melanoma = test system: LOX IMVI melanoma
M14 melanoma = test system: M14 melanoma
MALME-3M melanoma = test system: MALME-3M melanoma
MCF7 breast = test system: MCF7 breast
MDA-MB-231 breast = test system: MDA-MB-231 breast
MDA-MB-435 = test system: MDA-MB-435
MDA-N = test system: MDA-N
MOLT-4 leukemia = test system: MOLT-4 leukemia
NCI-H226 lung = test system: NCI-H226 lung
NCI-H23 lung = test system: NCI-H23 lung
NCI-H522 lung = test system: NCI-H522 lung
NCI/ADR-RES ovarian = test system: NCI/ADR-RES ovarian
OVCAR-3 ovarian = test system: OVCAR-3 ovarian
OVCAR-4 ovarian = test system: OVCAR-4 ovarian
OVCAR-5 ovarian = test system: OVCAR-5 ovarian
OVCAR-8 ovarian = test system: OVCAR-8 ovarian
PC-3 prostate = test system: PC-3 prostate
RPMI-8226 leukemia = test system: RPMI-8226 leukemia
SF-268 CNS = test system: SF-268 CNS
SF-295 CNS = test system: SF-295 CNS
SF-539 CNS = test system: SF-539 CNS
SK-MEL-2 melanoma = test system: SK-MEL-2 melanoma
SK-MEL-28 melanoma = test system: SK-MEL-28 melanoma
SK-MEL-5 melanoma = test system: SK-MEL-5 melanoma
SK-OV-3 ovarian = test system: SK-OV-3 ovarian
SN12C renal = test system: SN12C renal
SNB-75 CNS = test system: SNB-75 CNS
SR leukemia = test system: SR leukemia
SW-620 colon = test system: SW-620 colon
T-47D breast = test system: T-47D breast
TK-10 renal = test system: TK-10 renal
U251 CNS = test system: U251 CNS
UACC-257 melanoma = test system: UACC-257 melanoma
UACC-62 melanoma = test system: UACC-62 melanoma
UO-31 renal = test system: UO-31 renal
ACHN renal = test system: ACHN renal
NCI-H460 lung = test system: NCI-H460 lung
RXF 393 renal = test system: RXF 393 renal
SNB-19 CNS = test system: SNB-19 CNS
HCC-2998 colon = test system: HCC-2998 colon

Measured: TGI

COc1cccc2c1-c1nc(N)c3c(OC)cccc3c1C2=O
72.5 µM: HL-60(TB) leukemia
35.3 µM: KM12 colon
> 100 µM: 786-0 renal | A498 renal | A549 NSCLC | BT-549 breast | CAKI-1 renal | CCRF-CEM leukemia | COLO 205 colon | DU-145 prostate | EKVX NSCLC | HCT-116 colon | HCT-15 colon | HOP-92 NSCLC | HT29 colon | IGROV1 ovarian | K-562 leukemia | LOX IMVI melanoma | M14 melanoma | MALME-3M melanoma | MCF7 breast | MDA-MB-231 breast | MDA-MB-435 | MDA-N | MOLT-4 leukemia | NCI-H226 lung | NCI-H23 lung | NCI-H522 lung | NCI/ADR-RES ovarian | OVCAR-3 ovarian | OVCAR-4 ovarian | OVCAR-5 ovarian | OVCAR-8 ovarian | PC-3 prostate | RPMI-8226 leukemia | SF-268 CNS | SF-295 CNS | SF-539 CNS | SK-MEL-2 melanoma | SK-MEL-28 melanoma | SK-MEL-5 melanoma | SK-OV-3 ovarian | SN12C renal | SR leukemia | SW-620 colon | T-47D breast | TK-10 renal | U251 CNS | UACC-257 melanoma | UACC-62 melanoma | UO-31 renal
58.5 µM: HOP-62 NSCLC
52.3 µM: HS 578T breast
46.4 µM: SNB-75 CNS

[N-]=[N+]=Nc1ccccc1-c1ccccc1[N+](=O)[O-]
99 µM: NCI-H460 lung
45.4 µM: NCI-H522 lung
92.1 µM: NCI/ADR-RES ovarian
> 100 µM: 786-0 renal | A498 renal | A549 NSCLC | ACHN renal | BT-549 breast | CAKI-1 renal | DU-145 prostate | EKVX NSCLC | HCT-116 colon | HCT-15 colon | HOP-62 NSCLC | HOP-92 NSCLC | HS 578T breast | HT29 colon | IGROV1 ovarian | K-562 leukemia | KM12 colon | LOX IMVI melanoma | M14 melanoma | MALME-3M melanoma | MCF7 breast | MDA-MB-231 breast | MDA-MB-435 | MDA-N | NCI-H23 lung | OVCAR-3 ovarian | OVCAR-4 ovarian | OVCAR-5 ovarian | OVCAR-8 ovarian | PC-3 prostate | RPMI-8226 leukemia | RXF 393 renal | SF-268 CNS | SF-295 CNS | SK-MEL-2 melanoma | SK-MEL-28 melanoma | SK-OV-3 ovarian | SN12C renal | SNB-19 CNS | SNB-75 CNS | SR leukemia | SW-620 colon | T-47D breast | TK-10 renal | U251 CNS | UACC-62 melanoma | UO-31 renal
65.1 µM: MOLT-4 leukemia
71.7 µM: UACC-257 melanoma

CC(C)C1CNC(=O)C2(C=NC(C(C)C)CNC(=O)C3(C=N1)CCCO3)CCCO2 (stereo not drawn)
> 10 µM: 786-0 renal | A498 renal | A549 NSCLC | ACHN renal | BT-549 breast | CAKI-1 renal | CCRF-CEM leukemia | COLO 205 colon | DU-145 prostate | EKVX NSCLC | HCC-2998 colon | HCT-116 colon | HCT-15 colon | HL-60(TB) leukemia | HOP-62 NSCLC | HOP-92 NSCLC | HS 578T breast | HT29 colon | IGROV1 ovarian | K-562 leukemia | KM12 colon | M14 melanoma | MALME-3M melanoma | MCF7 breast | MDA-MB-231 breast | MDA-MB-435 | MDA-N | MOLT-4 leukemia | NCI-H23 lung | NCI-H522 lung | NCI/ADR-RES ovarian | OVCAR-3 ovarian | OVCAR-4 ovarian | OVCAR-8 ovarian | PC-3 prostate | RPMI-8226 leukemia | RXF 393 renal | SF-268 CNS | SF-295 CNS | SF-539 CNS | SK-MEL-28 melanoma | SK-MEL-5 melanoma | SK-OV-3 ovarian | SN12C renal | SNB-19 CNS | SNB-75 CNS | SR leukemia | SW-620 colon | T-47D breast | TK-10 renal | U251 CNS | UACC-257 melanoma | UACC-62 melanoma

CC(C)(O)/C1=C/C=C/CCCCCCCCCC1
98.6 µM: HL-60(TB) leukemia
2.85 µM: SNB-75 CNS
> 100 µM: A498 renal | ACHN renal | BT-549 breast | CAKI-1 renal | CCRF-CEM leukemia | COLO 205 colon | DU-145 prostate | EKVX NSCLC | HCC-2998 colon | HCT-116 colon | HCT-15 colon | HOP-62 NSCLC | HOP-92 NSCLC | HT29 colon | IGROV1 ovarian | K-562 leukemia | KM12 colon | LOX IMVI melanoma | M14 melanoma | MALME-3M melanoma | MCF7 breast | MDA-MB-231 breast | MDA-MB-435 | MDA-N | MOLT-4 leukemia | NCI-H226 lung | NCI-H23 lung | NCI-H460 lung | NCI-H522 lung | NCI/ADR-RES ovarian | OVCAR-3 ovarian | OVCAR-5 ovarian | OVCAR-8 ovarian | PC-3 prostate | RPMI-8226 leukemia | SF-268 CNS | SF-295 CNS | SK-MEL-2 melanoma | SK-MEL-28 melanoma | SK-OV-3 ovarian | SN12C renal | SNB-19 CNS | SR leukemia | SW-620 colon | T-47D breast | TK-10 renal | U251 CNS | UACC-257 melanoma | UACC-62 melanoma | UO-31 renal
7.78 µM: HS 578T breast
1.73 µM: SK-MEL-5 melanoma
